Measured values from patent US11569513B1, “Redox flow battery carrier molecule” (Triad National Security, LLC, priority 2020, dated 2023).

Key:
Type in all cases: physicochemical
[1] = Bulk electrolytic cycling (galvanostatic 1 electron charging and discharging) of the −0.93V wave; settings: over the first ten cycles, unoptimized
Method: FIG. 3. Galvanostatic 1 electron charging and discharging of a 1 mM solution of Fe(TREN-Pic) in 0.1 M TBAPF6 in MeCN, charging and discharging rates were both 1 mA and potential cutoffs were −1.3 V vs Ag^+ during charging and −0.4 V vs Ag^+ during discharging.
FIG. 5. Metrics obtained from bulk electrolysis displaying high coulombic efficiencies for the charge/discharge cycling.
(§1) In the negative portion of a cyclic voltammogram four features at −0.93, −2.10, −2.28, and −2.55V are observed with current ratios (i[cathodic]/i[anodic]) of 1.01, 0.67, 1.17, and 1.01 respectively. These were obtained with a 1 mM solution of Fe(TREN-Pic) in 0.1M tetrabutylammonium hexafluorophosphate in acetonitrile using a glassy carbon working electrode, platinum wire counter, and a 0.01M silver tetrafluoroborate reference electrode. When the −0.93V wave is subjected to bulk electrolytic cycling over 25 repetitions, a high Coulombic efficiency is calculated (˜95%) with an unoptimized slow decay in utilization (electrons stored per redox carrier molecule) of 4% over the first ten cycles. […] This represents only the third known complex to display this behavior (JACS, 2016, 15378 and Journal of Power Sources, 2016, 681).

[2] = Bulk cycling with broadened voltage window (galvanostatic 2 electron charging and discharging); settings: voltage window broadened to include the next wave; over 25 cycles
Method: FIG. 6. Galvanostatic 2 electron charging and discharging of a 1 mM solution of Fe(TREN-Pic) in 0.1 M TBAPF6 in MeCN, charging and discharging rates were both 1 mA and potential cutoffs were −2.14 V vs Ag^+ during charging and −0.4 V vs Ag^+ during discharging.
FIG. 8. Metrics obtained from bulk electrolysis displaying high coulombic efficiencies for the charge/discharge cycling and the complexes capability to reversibly store multiple electron equivalents.
as §1

[3] = Cyclic voltammogram, negative region, 1 mM solution in 0.1M TBAPF6 in acetonitrile
Method: FIG. 2. Voltammogram of the […]/negative region of a 1 mM solution of Fe(TREN-Pic) in 0.1 M tetrabutylammonium hexafluorophosphate (TBAPF6) in acetonitrile (MeCN), obtained using a glassy carbon working electrode, a platinum wire counter electrode, and a 0.010 M AgBF4 reference electrode.
as §1

decay in utilization (electrons stored per redox carrier molecule) [1]: 4%
decay over cycling [2]: significant decay
potential of first feature in negative portion of cyclic voltammogram ([3]; 1 mM in 0.1M tetrabutylammonium hexafluorophosphate in acetonitrile, glassy carbon working electrode, platinum wire counter, 0.01M silver tetrafluoroborate reference, first feature): −0.93 V
current ratio (i[cathodic]/i[anodic]) ([3]; feature at −0.93 V): 1.01
current ratio (i[cathodic]/i[anodic]) ([3]; feature at −2.10 V): 0.67
current ratio (i[cathodic]/i[anodic]) ([3]; feature at −2.28 V): 1.17
current ratio (i[cathodic]/i[anodic]) ([3]; feature at −2.55 V): 1.01
potential of fourth feature in negative portion of cyclic voltammogram ([3]; same conditions, fourth feature): −2.55 V
potential of second feature in negative portion of cyclic voltammogram ([3]; same conditions, second feature): −2.10 V
potential of third feature in negative portion of cyclic voltammogram ([3]; same conditions, third feature): −2.28 V
Substance: Fe III tris(2-aminoethyl)amine (TREN) picolinic (PIC) [Fe(TREN-Pic)]
